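Dose response: 5 concentrations. Exposure: 48 h. Format: 96-well plates. Endpoint: linear interpolation; highest concentration if not reached. GI50 = concentration required for 50% inhibition of growth. TGI denotes the concentration required for complete inhibition of growth.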
What was measured:
Assay in all cases: NCI tumour cell line growth inhibition, 48 h
[1] = tested on: DU-145 prostate
[2] = tested on: OVCAR-4 ovarian
[3] = tested on: NCI-H23 lung
[4] = tested on: NCI-H226 lung
[5] = tested on: HCT-15 colon
[6] = tested on: NCI/ADR-RES ovarian
[7] = tested on: LOX IMVI melanoma
[8] = tested on: HCT-116 colon
[9] = tested on: M19-MEL melanoma
[10] = tested on: OVCAR-5 ovarian
[11] = tested on: SN12C renal
[12] = tested on: PC-3 prostate
[13] = tested on: MDA-MB-231 breast
[14] = tested on: COLO 205 colon
[15] = tested on: HOP-62 NSCLC
[16] = tested on: RPMI-8226 leukemia
[17] = tested on: CCRF-CEM leukemia
[18] = tested on: SF-539 CNS
[19] = tested on: NCI-H522 lung
[20] = tested on: A498 renal
[21] = tested on: UACC-257 melanoma
[22] = tested on: DLD-1 colon
[23] = tested on: MDA-MB-435
[24] = tested on: TK-10 renal
[25] = tested on: LXFL 529 NSCLC
[26] = tested on: IGROV1 ovarian
[27] = tested on: KM12 colon
[28] = tested on: DMS 114 small cell lung
[29] = tested on: SK-MEL-5 melanoma
[30] = tested on: HT29 colon
[31] = tested on: XF 498 CNS
[32] = tested on: U251 CNS
[33] = tested on: SK-MEL-2 melanoma
[34] = tested on: UO-31 renal
[35] = tested on: UACC-62 melanoma
[36] = tested on: SF-295 CNS
[37] = tested on: HOP-92 NSCLC
[38] = tested on: SW-620 colon
[39] = tested on: SNB-78 CNS
[40] = tested on: NCI-H460 lung
[41] = tested on: OVCAR-8 ovarian
[42] = tested on: SNB-19 CNS
[43] = tested on: HCC-2998 colon
[44] = tested on: A549 NSCLC
[45] = tested on: SF-268 CNS
[46] = tested on: 786-0 renal
[47] = tested on: M14 melanoma
[48] = tested on: HL-60(TB) leukemia
[49] = tested on: HS 578T breast
[50] = tested on: ACHN renal
[51] = tested on: K-562 leukemia
[52] = tested on: SR leukemia
[53] = tested on: KM20L2 colon
[54] = tested on: CAKI-1 renal
[55] = tested on: MALME-3M melanoma
[56] = tested on: EKVX NSCLC
[57] = tested on: RXF 393 renal
[58] = tested on: OVCAR-3 ovarian
[59] = tested on: SNB-75 CNS
[60] = tested on: MOLT-4 leukemia
[61] = tested on: SK-MEL-28 melanoma

## CC[C@]12C=CCN3CCC4(c5cc([C@@]6(C(=O)OC)CC7CN(CCc8c6[nH]c6ccccc86)CC6CCCCC67)c(OC)cc5N(C)C4[C@](O)(C(=O)OC)C1OC(C)=O)[C@@H]32 (some centres not stated)
[1]
  TGI: 14.2 µM
[2]
  TGI: 18.3 µM
[3]
  TGI: < 0.01 µM
[4]
  TGI: 2.42 µM
[5]
  GI50: 0.693 µM
  TGI: 20.1 µM
[6]
  TGI: 0.512 µM
[7]
  TGI: 6.46 µM
[8]
  TGI: 0.0631 µM
[9]
  TGI: 17.6 µM
[10]
  TGI: 0.0926 µM
[11]
  TGI: 17.5 µM
[12]
  TGI: 0.393 µM
[13]
  TGI: 0.0655 µM
[14]
  TGI: < 0.01 µM
[15]
  TGI: 6.07 µM
[16]
  TGI: 61.3 µM
[17]
  TGI: > 20.6 µM
[18]
  TGI: < 0.01 µM
[19]
  TGI: < 0.0165 µM
[20]
  TGI: 0.576 µM
[21]
  TGI: 18.8 µM
[22]
  TGI: 13.2 µM
[23]
  TGI: < 0.01 µM
[24]
  TGI: 18.7 µM
[25]
  TGI: 12.7 µM
[26]
  TGI: 0.651 µM
[27]
  TGI: 15.7 µM
[28]
  TGI: < 0.01 µM
[29]
  TGI: 1.53 µM
[30]
  TGI: < 0.01 µM
[31]
  TGI: 9.12 µM
[32]
  TGI: < 0.01 µM
[33]
  TGI: 0.145 µM
[34]
  TGI: 7.31 µM
[35]
  TGI: 1.7 µM
[36]
  TGI: 15.1 µM
[37]
  TGI: 1.5 µM
[38]
  TGI: 15.6 µM
[39]
  TGI: 18.8 µM
[40]
  TGI: 0.225 µM
[41]
  TGI: 0.747 µM
[42]
  TGI: 15.4 µM
[43]
  TGI: < 0.01 µM
[44]
  TGI: 12.6 µM
[45]
  TGI: 1.47 µM
[46]
  TGI: 11 µM
[47]
  TGI: 1.35 µM
[48]
  TGI: > 100 µM
[49]
  TGI: < 0.01 µM
[50]
  TGI: 11.6 µM
[51]
  TGI: > 21.7 µM
[52]
  TGI: > 33.8 µM
[53]
  TGI: < 0.01 µM
[54]
  TGI: 12 µM
[55]
  TGI: 7.05 µM
[56]
  TGI: 21.7 µM
[57]
  TGI: 16.9 µM

## COC(=O)C1CCc2nnc(-c3ccccc3)n21 (configuration not stated)
[2]
  TGI: > 100 µM
[3]
  TGI: > 100 µM
[4]
  TGI: > 100 µM
[5]
  TGI: > 100 µM
[7]
  TGI: > 100 µM
[8]
  TGI: > 100 µM
[9]
  TGI: > 100 µM
[10]
  TGI: > 100 µM
[11]
  TGI: > 100 µM
[14]
  TGI: > 100 µM
[15]
  TGI: > 100 µM
[16]
  TGI: > 100 µM
[58]
  TGI: > 100 µM
[59]
  TGI: > 100 µM
[17]
  TGI: > 100 µM
[18]
  TGI: > 100 µM
[19]
  TGI: > 100 µM
[20]
  TGI: > 100 µM
[21]
  TGI: > 100 µM
[22]
  TGI: > 100 µM
[24]
  TGI: > 100 µM
[25]
  TGI: > 100 µM
[26]
  TGI: > 100 µM
[27]
  TGI: > 100 µM
[28]
  TGI: > 100 µM
[29]
  TGI: > 100 µM
[30]
  TGI: > 100 µM
[31]
  TGI: > 100 µM
[32]
  TGI: > 100 µM
[33]
  TGI: > 100 µM
[60]
  TGI: > 100 µM
[34]
  TGI: > 100 µM
[35]
  TGI: > 100 µM
[36]
  TGI: > 100 µM
[37]
  TGI: > 100 µM
[38]
  TGI: > 100 µM
[39]
  TGI: > 100 µM
[40]
  TGI: > 100 µM
[41]
  TGI: > 100 µM
[42]
  TGI: > 100 µM
[43]
  TGI: > 100 µM
[44]
  TGI: > 100 µM
[45]
  TGI: > 100 µM
[46]
  TGI: > 100 µM
[47]
  TGI: > 100 µM
[48]
  TGI: > 100 µM
[61]
  TGI: > 100 µM
[50]
  TGI: > 100 µM
[51]
  TGI: > 100 µM
[53]
  TGI: > 100 µM
[54]
  TGI: > 100 µM
[55]
  TGI: > 100 µM
[56]
  TGI: > 100 µM
[57]
  TGI: > 100 µM

From PubChem BioAssay (NCI)
